Test results: patent US20050107386A1, “Methods of treating diseases and disorders by targeting multiple kinases” (priority 2003, published 2005)

Tests used:
Format in all cases: biochemical
CDK2/cyclinA(h) = CDK2/cyclinA(h) (Homo sapiens, UniProt P24941); assay: CDK2/cyclinA(h) kinase assay; conditions: for Inhibitory activity (% of control), CDK2/cyclinA(h): 3 μM, percent of control kinase activity
Description: (§1) Six compounds (presumptive single agents) were tested against a panel of 50 kinases. The results are presented in Table 2; numbers for each kinase indicate the percent of control kinase activity in the presence of a 3μM concentration of the indicated agent.
(§2) Agents that target two or more different kinases are useful in the methods of the invention as described elsewhere herein. Such compounds may be identified, and their effect on certain kinases may be identified, using the assays briefly described below in Examples 4-83. Each of these assays was carried out as described in Davies et al., Biochem. J., 351:95-105 (2000). All assays were carried out at 10 μM ATP unless otherwise noted.
(§3) In a final reaction volume of 25 μl, CDK2/cyclinA (h) (5-10 mU) is incubated with 8 mM MOPS pH 7.0, 0.2 mM EDTA, 0.1 mg/ml histone H1, 10 mM MgAcetate and [γ-^33p-ATP] (specific activity approx. 500 cpm/pmol, concentration as required). The reaction is initiated by the addition of Mg^2+ [γ-^33P-ATP]. After incubation for 40 minutes at room temperature, the reaction is stopped by the addition of 5 μl of a 3% phosphoric acid solution. 10 μl of the reaction is then spotted onto a P30 filtermat and washed three times for 5 minutes in 75 mM phosphoric acid and once in methanol prior to drying and scintillation counting.

CDK7/cyclinH/MAT1 = CDK7/cyclinH/MAT1 (Homo sapiens, UniProt P50613); assay: CDK7/cyclinH/MAT1 kinase assay; conditions: 3 μM; percent of control kinase activity
Chain of CDK7/cyclinH/MAT1 (P50613 whole entry): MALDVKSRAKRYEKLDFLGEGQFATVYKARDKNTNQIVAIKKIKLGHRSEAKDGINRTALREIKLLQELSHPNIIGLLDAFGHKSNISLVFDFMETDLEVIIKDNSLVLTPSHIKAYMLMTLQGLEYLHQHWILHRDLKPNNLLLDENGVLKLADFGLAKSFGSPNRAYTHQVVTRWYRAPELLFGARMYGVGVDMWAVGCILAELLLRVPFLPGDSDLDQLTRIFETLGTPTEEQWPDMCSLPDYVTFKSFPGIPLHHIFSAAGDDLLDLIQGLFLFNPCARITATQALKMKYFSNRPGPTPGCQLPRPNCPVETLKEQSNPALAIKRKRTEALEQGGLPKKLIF
Chain of CDK7/cyclinH/MAT1 (P51946 whole entry partner): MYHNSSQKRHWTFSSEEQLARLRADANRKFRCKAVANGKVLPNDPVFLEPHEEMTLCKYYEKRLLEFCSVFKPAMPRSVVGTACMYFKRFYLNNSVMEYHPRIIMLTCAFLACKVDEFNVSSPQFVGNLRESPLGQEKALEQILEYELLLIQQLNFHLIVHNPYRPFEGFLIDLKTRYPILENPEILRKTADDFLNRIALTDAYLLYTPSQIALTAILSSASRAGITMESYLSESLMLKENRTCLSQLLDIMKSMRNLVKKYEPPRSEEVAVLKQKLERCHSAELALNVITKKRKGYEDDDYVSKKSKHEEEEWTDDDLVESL
Chain of CDK7/cyclinH/MAT1 (P51948 whole entry partner): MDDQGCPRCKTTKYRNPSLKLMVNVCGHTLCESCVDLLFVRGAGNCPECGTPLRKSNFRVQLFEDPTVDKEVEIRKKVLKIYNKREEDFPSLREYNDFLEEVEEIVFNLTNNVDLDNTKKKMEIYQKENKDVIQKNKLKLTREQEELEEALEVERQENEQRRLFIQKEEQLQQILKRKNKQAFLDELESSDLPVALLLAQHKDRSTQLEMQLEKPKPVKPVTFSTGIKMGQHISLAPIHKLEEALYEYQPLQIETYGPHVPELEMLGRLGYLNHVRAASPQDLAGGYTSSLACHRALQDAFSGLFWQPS
Description: as §1, §2
as §3, with “CDK7/cyclinH/MAT1” for “CDK2/cyclinA”, “500 μM peptide,” for “0.1 mg/ml histone H1,”, “[γ-^33P-ATP] [specific” for “[γ-^33p-ATP] (specific”, “[γ-33 P-ATP].” for “[γ-^33P-ATP].”

CSK(h) = CSK(h) (Homo sapiens, UniProt P41240); assay: CSK(h) kinase assay; conditions: 3 μM; percent of control kinase activity
Chain of CSK(h) (P41240 whole entry): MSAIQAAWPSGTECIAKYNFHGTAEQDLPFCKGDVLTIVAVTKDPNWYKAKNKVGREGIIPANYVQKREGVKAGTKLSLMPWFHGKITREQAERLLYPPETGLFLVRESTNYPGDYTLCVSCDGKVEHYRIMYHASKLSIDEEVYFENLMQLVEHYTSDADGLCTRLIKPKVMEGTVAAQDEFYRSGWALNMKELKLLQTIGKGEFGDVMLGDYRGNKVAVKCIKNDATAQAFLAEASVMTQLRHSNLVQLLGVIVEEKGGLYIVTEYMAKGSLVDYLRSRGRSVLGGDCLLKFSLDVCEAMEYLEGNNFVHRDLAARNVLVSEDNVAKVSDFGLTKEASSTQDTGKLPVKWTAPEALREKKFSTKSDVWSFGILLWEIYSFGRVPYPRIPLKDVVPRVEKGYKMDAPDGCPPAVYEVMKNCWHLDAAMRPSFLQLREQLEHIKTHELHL
Description: as §1, §2
In a final reaction volume of 25 μl, CSK (h) (5-10 mU) is incubated with 50 mM Tris pH 7.5, 0.1 mM EGTA, 0.1 mM NaVanadate, 0.1% β-mercaptoethanol, 0.1 mg/ml poly(Glu, Tyr) 4:1, 10 mM MnCl2, 10 mM MgAcetate and [γ-^33P-ATP] (specific activity approx. 500 cpm/pmol, concentration as required). The reaction is initiated by the addition of Mg^2+ [γ-^33P-ATP]. After incubation for 40 minutes at room temperature, the reaction is stopped by the addition of 5 μl of a 3% phosphoric acid solution. 10 μl of the reaction is then spotted onto a Filtermat A and washed three times for 5 minutes in 75 mM phosphoric acid and once in methanol prior to drying and scintillation counting.

Bmx(h) = target: T1, Bmx(h) (Homo sapiens, UniProt P51813); assay: Bmx(h) kinase assay; conditions: 3 μM; percent of control kinase activity
T1 sequence (P51813 1-675): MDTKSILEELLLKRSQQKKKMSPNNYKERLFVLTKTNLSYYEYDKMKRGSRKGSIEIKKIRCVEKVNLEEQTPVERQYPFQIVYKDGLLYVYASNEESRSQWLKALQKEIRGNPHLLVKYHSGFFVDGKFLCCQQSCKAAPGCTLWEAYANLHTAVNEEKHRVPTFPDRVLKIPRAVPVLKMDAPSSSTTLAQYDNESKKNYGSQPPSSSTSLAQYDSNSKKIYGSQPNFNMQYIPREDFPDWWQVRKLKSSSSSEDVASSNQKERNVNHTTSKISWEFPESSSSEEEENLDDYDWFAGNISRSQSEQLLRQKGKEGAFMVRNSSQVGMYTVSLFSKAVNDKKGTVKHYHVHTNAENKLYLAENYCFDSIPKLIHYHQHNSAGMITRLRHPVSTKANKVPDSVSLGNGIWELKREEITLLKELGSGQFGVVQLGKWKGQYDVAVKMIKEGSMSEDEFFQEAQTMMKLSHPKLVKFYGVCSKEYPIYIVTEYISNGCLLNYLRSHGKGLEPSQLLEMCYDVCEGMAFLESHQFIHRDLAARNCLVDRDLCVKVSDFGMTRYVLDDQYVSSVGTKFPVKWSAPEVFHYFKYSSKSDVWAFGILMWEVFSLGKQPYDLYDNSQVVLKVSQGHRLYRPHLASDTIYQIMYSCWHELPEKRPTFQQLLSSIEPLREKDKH
Description: as §1, §2

GSK3β(h) = GSK3β(h) (Homo sapiens, UniProt P49841); assay: GSK3β(h) kinase assay; conditions: 3 μM; percent of control kinase activity
Chain of GSK3β(h) (P49841 whole entry): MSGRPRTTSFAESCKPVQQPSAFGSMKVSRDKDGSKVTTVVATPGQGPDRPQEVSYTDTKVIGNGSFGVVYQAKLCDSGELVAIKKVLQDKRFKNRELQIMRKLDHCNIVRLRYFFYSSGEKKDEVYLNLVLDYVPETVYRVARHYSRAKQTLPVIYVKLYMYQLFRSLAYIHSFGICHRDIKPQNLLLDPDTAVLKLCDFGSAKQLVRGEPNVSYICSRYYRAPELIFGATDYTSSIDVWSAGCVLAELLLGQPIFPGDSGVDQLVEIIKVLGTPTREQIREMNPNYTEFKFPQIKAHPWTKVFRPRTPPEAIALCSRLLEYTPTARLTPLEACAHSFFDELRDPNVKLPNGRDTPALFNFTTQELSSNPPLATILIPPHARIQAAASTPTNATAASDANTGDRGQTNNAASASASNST
Description: as §1, §2
as §3, with “GSK3β” for “CDK2/cyclinA”, “20 μM […](p)EDEEE (phospho GS2 peptide; SEQ ID NO:3),” for “0.1 mg/ml histone H1,”, “[γ-^33P-ATP] (Specific” for “[γ-^33p-ATP] (specific”, “50” for “75”

PKA(h) = PKA(h) (Homo sapiens, UniProt P17612); assay: PKA(h) kinase assay; conditions: 3 μM; percent of control kinase activity
Description: as §1, §2
In a final reaction volume of 25 μl, PKA(h) (5-10 mU) is incubated with 8 mM MOPS pH 7.0, 0.2 mM EDTA, 30 μM LRRASLG (Kemptide; SEQ ID NO:10), 10 mM MgAcetate and [γ-^33P-ATP] (specific activity approx. 500 cpm/pmol, concentration as required). The reaction is initiated by the addition of Mg^2+ [γ-^33P-ATP]. After incubation for 40 minutes at room temperature, the reaction is stopped by the addition of 5 [Il of a 3% phosphoric acid solution. 10 μl of the reaction is then spotted onto a P30 filtermat and washed three times for 5 minutes in 50 mM phosphoric acid and once in methanol prior to drying and scintillation counting.

panel of 50 kinases = assay: Panel of 50 kinases (Table 2), count of inhibited kinases; conditions: compared to a no-compound control; 3 μM
Description: as §1
CC006 (5-(5-Cyclopentyl-1H-[1,2,4]triazol-3-yl)-3-(4-fluoro-phenyl)-1H-indazole) and CC007 (3-(5-(1H-1,2,4-triazol-3-yl)(1H-indazol-3-yl))phenyl-N-cyclopentylcarboxamide) were included as controls.

## CCN1CCC[C@H]1COc1ccc2cc(-c3n[nH]c4ccc(-c5nc(CC(C)(C)C)n[nH]5)cc34)ccc2c1 [CC005, 2-[((2s)-1-ethylpyrrolidin-2-yl)methoxy]-6-{5-[3-(2,2-Dimethylpropyl)(1H-1,2,4,-triazol-5-yl)](1H-indazol-3-yl)}naphthalene]
CDK2/cyclinA(h)
  Inhibitory activity (% of control), CDK2/cyclinA(h): 2 % of control
CDK7/cyclinH/MAT1
  Inhibitory activity (% of control), CDK7/cyclinH/MAT1: 7 % of control
CSK(h)
  Inhibitory activity (% of control), CSK(h): 88 % of control
Bmx(h)
  Inhibitory activity (% of control), Bmx(h): 36 % of control
GSK3β(h)
  Inhibitory activity (% of control), GSK3β(h): 34 % of control
PKA(h)
  Inhibitory activity (% of control), PKA(h): 50 % of control

## COc1ccc2cc(-c3n[nH]c4ccc(-c5n[nH]c(CN6CCOCC6)n5)cc34)ccc2c1 [CC001, 3-(6-Methoxynaphthalen-2-yl)-5-(5-Morpholin-4-Ylmethyl-1H-[1,2,4]Triazol-3-yl)-1H-Indazole]
CDK2/cyclinA(h)
  Inhibitory activity (% of control), CDK2/cyclinA(h): 4 % of control
CDK7/cyclinH/MAT1
  Inhibitory activity (% of control), CDK7/cyclinH/MAT1: 13 % of control
CSK(h)
  Inhibitory activity (% of control), CSK(h): 95 % of control
Bmx(h)
  Inhibitory activity (% of control), Bmx(h): 74 % of control
GSK3β(h)
  Inhibitory activity (% of control), GSK3β(h): 12 % of control
PKA(h)
  Inhibitory activity (% of control), PKA(h): 60 % of control
Panel of 50 kinases
  number of kinases listed in Table 2 whose activity is inhibited by more than 95%: 16

## CC(C)(C)Cc1nc(-c2ccc3[nH]nc(-c4ccc5cc(OCc6ccccn6)ccc5c4)c3c2)n[nH]1 [CC004, 5-[5-(2,2-Dimethyl-propyl)-1H-[1,2,4]triazol-3-yl]-3-[6-(pyridine-2-ylmethoxy)-naphthalen-2-yl]-1H-indazole]
CDK2/cyclinA(h)
  Inhibitory activity (% of control), CDK2/cyclinA(h): 2 % of control
CDK2/cyclinA(h); summary of Table 2
  inhibitory activity against CDK2, in words: good inhibitory activity
CDK7/cyclinH/MAT1
  Inhibitory activity (% of control), CDK7/cyclinH/MAT1: 19 % of control
CSK(h)
  Inhibitory activity (% of control), CSK(h): 123 % of control
Bmx(h)
  Inhibitory activity (% of control), Bmx(h): 98 % of control
GSK3β(h)
  Inhibitory activity (% of control), GSK3β(h): 63 % of control
PKA(h)
  Inhibitory activity (% of control), PKA(h): 91 % of control
Panel of 50 kinases
  number of kinases listed in Table 2 whose activity is inhibited by more than 95%: 16

## CC(C)Cc1nc(-c2ccc3[nH]nc(-c4ccc5cc(OCCN6CCCC6)ccc5c4)c3c2)n[nH]1 [CC002, 5-(5-Isobutyl-1H-[1,2,4]Triazol-3-yl)-3-[6-(2-Pyrrolidin-1-yl-Ethoxy)-Naphthalen-2-yl]-1H-Indazole]
Panel of 50 kinases
  number of kinases listed in Table 2 whose activity is inhibited by more than 95%: 29
